Experimental findings from patent publication US20260022142A1, “MACROCYCLIC IMMUNOMODULATORS” (Bristol-Myers Squibb Company, priority 2022, published 2026) are described below.

pIC50: −log10 of the molar value. Numbered stars: 1 amine (or outer) side, 2 acyl side, 3 side chain; on linkers, the order of the positions; unused ones are H or OH. Bridge positions count the residues as written; N and C are the ends. Square brackets hold non-standard residues; d marks the D form. Peptide text beside a SMILES is read from it. * marks the point of attachment. ξ: configuration not given here. Phe(4-CONH2) = NC(=O)c1ccc(C[C@H](N)C(=O)O)cc1; Phe(4-COOH) = N[C@@H](Cc1ccc(C(=O)O)cc1)C(=O)O; Bip = N[C@@H](Cc1ccc(-c2ccccc2)cc1)C(=O)O; Phe(3-Me) = Cc1cccc(C[C@H](N)C(=O)O)c1; βAsp = O=C(O)[C@H](CC(=O)[*:2])N[*:1]; Phe(2-Me) = Cc1ccccc1C[C@H](N)C(=O)O; Val(3-OH) = CC(C)(O)[C@H](N)C(=O)O; 4Pal = N[C@@H](Cc1ccncc1)C(=O)O; Cha = N[C@@H](CC1CCCCC1)C(=O)O; Cit = NC(=O)NCCC[C@H](N)C(=O)O; Ile(3ξ) = CCC(C)[C@H](N)C(=O)O; Thr(3ξ) = CC(O)[C@H](N)C(=O)O; Tle = CC(C)(C)[C@H](N)C(=O)O; 12Ado = NCCCCCCCCCCCC(=O)O; dDab = NCC[C@@H](N)C(=O)O; Carboxymethyl = O=C(O)C*; Orn = NCCC[C@H](N)C(=O)O; Aun = NCCCCCCCCCCC(=O)O; Dab = NCC[C@H](N)C(=O)O; Dap = NC[C@H](N)C(=O)O; AEEA = NCCOCCOCC(=O)O; Piv = CC(C)(C)C(=O)*; ξDab = NCCC(N)C(=O)O

T1 sequence (Q15116 25-288): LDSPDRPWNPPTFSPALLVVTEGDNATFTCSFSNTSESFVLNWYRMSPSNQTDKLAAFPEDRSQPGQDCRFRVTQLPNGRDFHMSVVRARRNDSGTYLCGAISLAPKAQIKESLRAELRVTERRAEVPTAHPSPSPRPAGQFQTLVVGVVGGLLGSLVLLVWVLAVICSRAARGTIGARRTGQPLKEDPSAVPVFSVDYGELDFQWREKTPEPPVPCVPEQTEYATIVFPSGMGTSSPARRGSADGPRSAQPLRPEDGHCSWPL

This experiment addresses T1, PD-1/PD-L1 interaction (PE-labeled human PD-L1-Ig binding to Jurkat cell line over-expressing human PD-1) (Homo sapiens, UniProt Q15116).
T1 construct: expressed in transfected cells; host or cells: Jurkat
Put plainly: Jurkat-PD-1 Cell Binding High-Content Screening Assay (CBA). The class given is cell-based. Conditions: Jurkat cell line over-expressing human PD-1; PE-labeled PD-L1-Ig 20 nM final; read-out: Jurkat hPD1-PDL1 IC50. In outline: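 Jurkat-hPD-1 cells, DMEM/10% FCS; cpd 2 h 37° C; PE-PD-L1-Ig 20 nM final, 1 h; 4% PFA fix + Hoechst 33342, 3× dPBS wash; high-content imaging read-out.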
By pIC50 is commonly meant the IC50 on a negative log10 scale, so that one unit is a factor of ten. On to `Cc1cccc(C[C@@H]2NC(=O)[C@H](CC(=O)O)NC(=O)[C@H](Cc3ccc(OCC(=O)O)cc3)NC(=O)[C@H](CCNC(=O)C(C)(C)C)NC(=O)CSC[C@@H](C(=O)N[C@@H](CCN)C(=O)NCCCCCCCCCCC(=O)O)NC(=O)[C@H](CCC(N)=O)NC(=O)[C@H](C(C)C)NC(=O)[C@H](CC3CCCCC3)NC(=O)[C@H](CCN)NC(=O)[C@@H](CC(C)C)NC(=O)[C@H](CCCN)NC(=O)[C@H](Cc3ccc(OCC(=O)O)cc3)NC(=O)[C@H](Cc3ccc(-c4ccccc4)cc3)NC(=O)[C@H](Cc3ccc(O)cc3)NC2=O)c1` [Compound 2112] ({CH2CO}-[Dab](Piv)Y(Carboxymethyl)D[Phe(3-Me)]Y[Bip]Y(Carboxymethyl)[Orn][dL][Dab][Cha]VQC[Dab][Aun]-OH; thioether N-14), for which the negative-log IC50 (pIC50) was 8.26. With `Cc1cccc(C[C@@H]2NC(=O)[C@H](CC(=O)O)NC(=O)[C@H](Cc3ccc(OCC(=O)O)cc3)NC(=O)[C@H](CCN)NC(=O)CSC[C@@H](C(=O)N[C@@H](CCN)C(=O)NCCCCCCCCCCC(=O)O)NC(=O)[C@H](CO)NC(=O)[C@H](CCCCN)NC(=O)[C@H](CC3CCCCC3)NC(=O)[C@H](CCN)NC(=O)[C@@H](CC(C)C)NC(=O)[C@H](CCCN)NC(=O)[C@H](Cc3ccc(OCC(=O)O)cc3)NC(=O)[C@H](Cc3ccc(-c4ccccc4)cc3)NC(=O)[C@H](Cc3ccc(OCC(=O)O)cc3)NC2=O)c1` [Compound 3631] ({CH2CO}-[Dab]Y(Carboxymethyl)D[Phe(3-Me)]Y(Carboxymethyl)[Bip]Y(Carboxymethyl)[Orn][dL][Dab][Cha]KSC[Dab][Aun]-OH; thioether N-14), the negative-log IC50 (pIC50) was 7.80.

In the case of `Cc1cccc(C[C@@H]2NC(=O)[C@H](CC(=O)O)NC(=O)[C@H](Cc3ccc(OCC(=O)O)cc3)NC(=O)[C@H](CCCNC(=N)N)NC(=O)CSC[C@@H](C(=O)NCCOCCOCC(=O)N[C@@H](CCN)C(=O)NCCCCCCCCCCC(=O)O)NC(=O)[C@H](CN)NC(=O)[C@H](C(C)C)NC(=O)[C@H](CC3CCCCC3)NC(=O)[C@H](CCN)NC(=O)[C@@H](CC(C)C)NC(=O)[C@H](CCCN)NC(=O)[C@H](C(C)C)NC(=O)[C@H](Cc3ccc(-c4ccccc4)cc3)NC(=O)[C@H](C(C)C)NC2=O)c1` [Compound 3220] ({CH2CO}-RY(Carboxymethyl)D[Phe(3-Me)]V[Bip]V[Orn][dL][Dab][Cha]V[Dap]C[AEEA][Dab][Aun]-OH; thioether N-14), the pIC50 was 7.94.

`Cc1cccc(C[C@@H]2NC(=O)[C@H](CC(=O)O)NC(=O)[C@H](Cc3ccc(OCC(=O)O)cc3)NC(=O)[C@H](C(C)O)NC(=O)CSC[C@@H](C(=O)NC(CCN)C(=O)NCCCCCCCCCCCC(=O)O)NC(=O)[C@H](C(C)O)NC(=O)[C@H](C(C)C)NC(=O)[C@H](CC3CCCCC3)NC(=O)[C@H](CCN)NC(=O)[C@@H](CC(C)C)NC(=O)[C@H](CCCN)NC(=O)[C@H](CCCNC(N)=O)NC(=O)[C@H](Cc3ccc(-c4ccccc4)cc3)NC(=O)[C@H](C(C)C)NC2=O)c1` (stereo partly drawn) [Compound 3504] ({CH2CO}-[Thr(3ξ)]Y(Carboxymethyl)D[Phe(3-Me)]V[Bip][Cit][Orn][dL][Dab][Cha]V[Thr(3ξ)]C[ξDab][12Ado]-OH; thioether N-14): the pIC50 was 7.58.

In the case of `Cc1cccc(C[C@@H]2NC(=O)[C@H](CC(=O)O)NC(=O)[C@H](Cc3ccc(OCC(=O)O)cc3)NC(=O)[C@H](CCCNC(=N)N)NC(=O)CSC[C@@H](C(=O)N[C@@H](CCN)C(=O)NCCCCCCCCCCC(=O)O)NC(=O)[C@H](CCC(N)=O)NC(=O)[C@H](C(C)(C)C)NC(=O)[C@H](CC3CCCCC3)NC(=O)[C@H](CCN)NC(=O)[C@@H](CC(C)C)NC(=O)[C@H](CCCN)NC(=O)[C@H](Cc3ccc(OCC(=O)O)cc3)NC(=O)[C@H](Cc3ccc(-c4ccccc4)cc3)NC(=O)[C@H](Cc3ccc(OCC(=O)O)cc3)NC2=O)c1` [Compound 3532] ({CH2CO}-RY(Carboxymethyl)D[Phe(3-Me)]Y(Carboxymethyl)[Bip]Y(Carboxymethyl)[Orn][dL][Dab][Cha][Tle]QC[Dab][Aun]-OH; thioether N-14), the negative logarithm of the IC50 (pIC50) is 8.12. Consider `Cc1cccc(C[C@@H]2NC(=O)[C@H](CC(=O)O)NC(=O)[C@H](Cc3ccc(C(=O)O)cc3)NC(=O)[C@H](CN)NC(=O)CSC[C@@H](C(=O)N[C@@H](CCN)C(=O)NCCCCCCCCCCC(=O)O)NC(=O)[C@H]([C@@H](C)O)NC(=O)[C@H](C(C)C)NC(=O)[C@H](CC3CCCCC3)NC(=O)[C@H](CCN)NC(=O)[C@@H](CC(C)C)NC(=O)[C@H](CCCN)NC(=O)[C@H](Cc3ccc(OCC(=O)O)cc3)NC(=O)[C@H](Cc3ccc(-c4ccccc4)cc3)NC(=O)[C@H](Cc3ccc(OCC(=O)O)cc3)NC2=O)c1` [Compound 2165] ({CH2CO}-[Dap][Phe(4-COOH)]D[Phe(3-Me)]Y(Carboxymethyl)[Bip]Y(Carboxymethyl)[Orn][dL][Dab][Cha]VTC[Dab][Aun]-OH; thioether N-14), for which the negative logarithm of the IC50 (pIC50) is 7.66. For `Cc1cccc(C[C@@H]2NC(=O)[C@H](CC(=O)O)NC(=O)[C@H](Cc3ccc(OCC(=O)O)cc3)NC(=O)[C@H](CCCCNC(=O)C(C)(C)C)NC(=O)CSC[C@@H](C(=O)N[C@@H](CCN)C(=O)NCCCCCCCCCCC(=O)O)NC(=O)[C@H](C(C)O)NC(=O)[C@H](C(C)C)NC(=O)[C@H](CC3CCCCC3)NC(=O)[C@H](CCN)NC(=O)[C@@H](CC(C)C)NC(=O)[C@H](CCCN)NC(=O)[C@H](CCCNC(N)=O)NC(=O)[C@H](Cc3ccc(-c4ccccc4)cc3)NC(=O)[C@H](C(C)C)NC2=O)c1` (stereo partly drawn) [Compound 3539] ({CH2CO}-K(Piv)Y(Carboxymethyl)D[Phe(3-Me)]V[Bip][Cit][Orn][dL][Dab][Cha]V[Thr(3ξ)]C[Dab][Aun]-OH; thioether N-14), the negative logarithm of the IC50 (pIC50) was 7.40. To `Cc1cccc(C[C@@H]2NC(=O)[C@H](CC(=O)O)NC(=O)[C@H](Cc3ccc(OCC(=O)O)cc3)NC(=O)[C@H](CN)NC(=O)CSC[C@@H](C(=O)N[C@@H](C)C(=O)N[C@@H](CC(=O)NCC(=O)NCCCCCCCCCCC(=O)O)C(=O)O)NC(=O)[C@H]([C@@H](C)O)NC(=O)[C@H](C(C)C)NC(=O)[C@H](CC3CCCCC3)NC(=O)[C@H](CCN)NC(=O)[C@@H](CC(C)C)NC(=O)[C@H](CCCN)NC(=O)[C@H](CCCNC(N)=O)NC(=O)[C@H](Cc3ccc(-c4ccccc4)cc3)NC(=O)[C@H](C(C)C)NC2=O)c1` [Compound 1012] ({CH2CO}-[Dap]Y(Carboxymethyl)D[Phe(3-Me)]V[Bip][Cit][Orn][dL][Dab][Cha]VTCA[βAsp]G[Aun]-OH; thioether N-14) belongs 8.30; to `CCC(C)[C@@H]1NC(=O)[C@H](Cc2ccc(-c3ccccc3)cc2)NC(=O)[C@H](Cc2ccc(C(=O)O)cc2)NC(=O)[C@H](Cc2cccc(C)c2)NC(=O)[C@H](CC(=O)O)NC(=O)[C@H](Cc2ccc(C(=O)O)cc2)NC(=O)[C@H](Cc2ccncc2)NC(=O)CSC[C@@H](C(=O)N[C@H](CCN)C(=O)NCCOCCOCC(=O)NCCCCCCCCCCC(=O)O)NC(=O)[C@H](CCC(=O)O)NC(=O)[C@H](C(C)(C)O)NC(=O)[C@H](CC2CCCCC2)NC(=O)[C@H](CCN)NC(=O)[C@@H](CC(C)C)NC(=O)[C@H](Cc2cnc[nH]2)NC1=O` (stereo partly drawn) [Compound 3739] ({CH2CO}-[4Pal][Phe(4-COOH)]D[Phe(3-Me)][Phe(4-COOH)][Bip][Ile(3ξ)]H[dL][Dab][Cha][Val(3-OH)]EC[dDab][AEEA][Aun]-OH; thioether N-14), 7.39. Turning to `Cc1cccc(C[C@@H]2NC(=O)[C@H](CC(=O)O)NC(=O)[C@H](Cc3ccc(OCC(=O)O)cc3)NC(=O)[C@H](C(C)O)NC(=O)CSC[C@@H](C(=O)N[C@@H](CCN)C(=O)NCCCCCCCCCCC(=O)O)NC(=O)[C@H](C(C)O)NC(=O)[C@H](C(C)(C)O)NC(=O)[C@H](CC3CCCCC3)NC(=O)[C@H](Cc3cnc[nH]3)NC(=O)[C@@H](CC(C)C)NC(=O)[C@H](CCCN)NC(=O)[C@H](Cc3ccc(O)cc3)NC(=O)[C@H](Cc3ccc(-c4ccccc4)cc3)NC(=O)[C@H](Cc3ccc(C(N)=O)cc3)NC2=O)c1` (stereo partly drawn) [Compound 3729] ({CH2CO}-[Thr(3ξ)]Y(Carboxymethyl)D[Phe(3-Me)][Phe(4-CONH2)][Bip]Y[Orn][dL]H[Cha][Val(3-OH)][Thr(3ξ)]C[Dab][Aun]-OH; thioether N-14), the negative logarithm of the IC50 (pIC50) was 7.52. Consider `Cc1cccc(C[C@@H]2NC(=O)[C@H](CC(=O)O)NC(=O)[C@H](Cc3ccc(OCC(=O)O)cc3)NC(=O)[C@H](CN)NC(=O)CSC[C@@H](C(=O)N[C@@H](CCN)C(=O)NCCOCCOCC(=O)NCCCCCCCCCCC(=O)O)NC(=O)[C@H](CCCN)NC(=O)[C@H](C(C)C)NC(=O)[C@H](CC3CCCCC3)NC(=O)[C@H](CCN)NC(=O)[C@@H](CC(C)C)NC(=O)[C@H](CCCN)NC(=O)[C@H](Cc3ccccc3C)NC(=O)[C@H](Cc3ccc(-c4ccccc4)cc3)NC(=O)[C@H](Cc3ccc(O)cc3)NC2=O)c1` [Compound 2048] ({CH2CO}-[Dap]Y(Carboxymethyl)D[Phe(3-Me)]Y[Bip][Phe(2-Me)][Orn][dL][Dab][Cha]V[Orn]C[Dab][AEEA][Aun]-OH; thioether N-14), for which the negative logarithm of the IC50 (pIC50) is 7.91. For the compound `Cc1cccc(C[C@@H]2NC(=O)[C@H](CC(=O)O)NC(=O)[C@H](Cc3ccc(O)cc3)NC(=O)[C@H](CC(N)=O)NC(=O)CSC[C@@H](C(=O)N[C@@H](CCN)C(=O)NCCCCCCCCCCC(=O)O)NC(=O)[C@H]([C@@H](C)O)NC(=O)[C@H](C(C)C)NC(=O)[C@H](CC3CCCCC3)NC(=O)[C@H](CCN)NC(=O)[C@@H](CC(C)C)NC(=O)[C@H](CCCN)NC(=O)[C@H](Cc3ccc(O)cc3)NC(=O)[C@H](Cc3ccc(-c4ccccc4)cc3)NC(=O)[C@H](C(C)C)NC2=O)c1` [Compound 2738] ({CH2CO}-NYD[Phe(3-Me)]V[Bip]Y[Orn][dL][Dab][Cha]VTC[Dab][Aun]-OH; thioether N-14), the pIC50 was 7.20.
